The nature of data set [1]: Singlet oxygen (1O2) production rate. The format is physicochemical. The source says: The production of singlet oxygen (^1O2), cellular phototoxicity and light-independent cytotoxicity (“dark toxicity”) of a number of phyllochlorin analogues were compared against chlorin e4 disodium and Talaporfin sodium (mono-L-aspartyl chlorin e6), the active ingredient of Laserphyrin™.

In data set [2] the test system is SKOV3 ovarian cancer cells. Kind of data set: Phototoxicity in SKOV3 cells (652 nm laser, AlamarBlue viability). The class given is cell-based, Human. The method, then:
(§1) Human ovarian cancer cell line SKOV3 (ATCC #HTB-77) was maintained in Dulbecco's Modified Eagle Medium/Nutrient Mixture F-12 (DMEM/F-12), supplemented with 10% v/v Fetal Bovine Serum, 100 U/mL penicillin and 100 µg/mL streptomycin. Monolayer cultures were grown in a humidified incubator at 37° C. with 5% CO2.
(§2) For in vitro experiments, photosensitizers (stock solution 5.5 mM in 100% DMSO) were diluted in cell culture media (Dulbecco's Modified Eagle Medium/Nutrient Mixture F-12) supplemented with 10% v/v Fetal Bovine Serum, 100 U/mL penicillin, 100 µg/mL streptomycin and 10% w/v Kollidon-12. Once cells had reached ˜80% confluence, spent media was replaced with media containing photosensitizer and cells were incubated for the desired period of time to allow photosensitizer uptake.
SKOV3 cells were seeded in 96-well black wall plates (Greiner #655090) at a cell density of 5000 cells in 100 μl culture medium per well. On reaching ˜60% confluence, so media was aspirated and replaced with fresh media containing the relevant phyllochlorin analogue from 0-100 μM in DMSO. Cells were incubated for a further 24 hours, allowing uptake of phyllochlorin analogues.
To test for phototoxicity, cells incubated with phyllochlorin analogues (0-10 μM in DMSO) had culture media replaced after 24 hours (as above) and were then exposed to a 652 nm laser (Invion) with laser density at 50 mW/cm^2 for 5 mins (total 15 J/cm^2). Following activation, cells were cultured for a further 24 hours. Media was then replaced with fresh media containing AlamarBlue, and % viable cells remaining assessed as above. Controls included cells treated with phyllochlorin analogues but not activated by laser light; cells without phyllochlorin analogue treatment but with laser light; and untreated controls. All measurements were made in quadruplicate.
(§3) For comparative purposes, phyllochlorin analogues were tested and compared against both chlorin e4 disodium and Talaporfin sodium, a clinically approved photosensitizer used in the photodynamic treatment of lung cancers. Phototoxicity IC90 values and dark toxicity IC10 values were calculated using a log[inhibitor]-vs normalized response dose curve with variable slope, using the formula Y=100/(1+(IC90/X)^HillSlope (phototoxicity IC90) or Y=100/(1+(IC10/X)^HillSlope (dark toxicity IC10).
(In general: Resazurin is reduced to fluorescent resorufin, in cell work by metabolically active cells.)

In data set [3] the test system is SKOV3 ovarian cancer cells. Kind of data set: Inherent cytotoxicity (dark toxicity) in SKOV3 cells (AlamarBlue viability). The format is cell-based, Human. On the procedure: as §1, §2
SKOV3 cells were seeded in 96-well black wall plates (Greiner #655090) at a cell density of 5000 cells in 100 μl culture medium per well. On reaching ˜60% confluence, media was aspirated and replaced with fresh media containing the relevant phyllochlorin analogue from 0-100 μM in DMSO. Cells were incubated for a further 24 hours, allowing uptake of phyllochlorin analogues.
To test for inherent cytotoxicity (i.e. “dark toxicity”) of the phyllochlorin analogue the culture media was replaced after 24 hours with fresh media containing 10% (v/v) AlamarBlue Cell Viability Reagent (ThermoFisher) and cells incubated at 37° C. for 6 hours. Untreated cells were used as a control. Fluorescence (Ex 555 nm/Em 596 nm) was measured using a Cytation 3 Multimode Plate Reader (Biotek), and cytotoxicity assessed according to the % viable cells remaining. All measurements were made in quadruplicate.
as §3

[4] abbreviates: Homo sapiens, SK-OV-3, light or radiation study, SKOV3, 24 h uptake, 652 nm laser 50 mW/cm2 5 mins (15 J/cm2), viability 24 h later, read-out: Cellular Toxicity: Phototoxicity IC90.
The mark [5] stands for this setting: SKOV3, 24 h uptake, 652 nm laser 50 mW/cm2 5 mins (15 J/cm2), viability 24 h later, read-out: Cellular Toxicity: Phototoxicity IC90.
Setting [6] is: Homo sapiens, SK-OV-3, light or radiation study, SKOV3, read-out: Phototoxicity apparent IC90.

Counter-ions that a name gives are not always drawn. Like-named read-outs stand apart in the source and are kept apart here.

With `C=Cc1c(C)c2cc3nc(c(C)c4cc(C)c(cc5nc(cc1[nH]2)C(C)=C5CC)[nH]4)[C@@H](CCC(=O)N(C)CCO)[C@@H]3C` [Compound 10, 3-((7S,8S)-18-ethyl-2,5,8,12,17-pentamethyl-13-vinyl-7H,8H-porphyrin-7-yl)-N-(2-hydroxyethyl)-N-methylpropanamide], the “Singlet Oxygen Production (slope) 1O2” value in data set [1] worked out at 1691.0. For the same molecule, the IC90 (in general, the point of the concentration-response curve where the effect stands at 90%) in data set [2] (setting [4]) turned out to be 160 nM. The “Cellular Toxicity: Dark toxicity IC10” value in data set [3] (human, 24 h) is 14940 nM.
“3-((7S,8S)-18-ethyl-2,5,8,12,17-pentamethyl-13-vinyl-7H,8H-porphyrin-7-yl)-N-(2-(2-hydroxyethoxy)ethyl)-N-methylpropanamide zinc complex [Compound 21]”: the “Singlet Oxygen Production (slope) 1O2” value in data set [1] was determined as 423.4. In data set [1] (compound 21 versus compound 18), the “Fold decrease in the rate of ROS production on Zn2+ complexation” value is recorded as approximately 2.5 fold. The 90% effect concentration (IC90) in data set [2] (setting [5]) is 4770 nM. The “Cellular Toxicity: Dark toxicity IC10” value in data set [3] worked out at 8170 nM.
For the molecule `C=Cc1c(C)c2cc3nc(c(C)c4cc(C)c(cc5nc(cc1[nH]2)C(C)=C5CC)[nH]4)[C@@H](CCC(=O)O)[C@@H]3C` [Compound 1a, phyllochlorin potassium salt], the “Singlet Oxygen Production (slope) 1O2” value in data set [1] (potassium salt) was found to be 760.9. The IC90 in data set [2] (SKOV3, 24 h uptake, 652 nm laser 50 mW/cm2 5 mins (15 J/cm2), viability 24 h later, potassium salt, read-out: Cellular Toxicity: Phototoxicity IC90) was 470 nM. In addition, in data set [3] (human, 24 h), the “Cellular Toxicity: Dark toxicity IC10” value was 12410 nM.
Consider `C=Cc1c(C)c2cc3nc(c(C)c4cc(C)c(cc5nc(cc1[nH]2)C(C)=C5CC)[nH]4)[C@@H](CCC(=O)N(C)CCCS[C@@H]1O[C@H](COC(C)=O)[C@@H](OC(C)=O)[C@H](OC(C)=O)[C@H]1OC(C)=O)[C@@H]3C` [Compound 11, (2R,3R,4S,5R,6S)-2-(acetoxymethyl)-6-((3-(3-((7S,8S)-18-ethyl-2,5,8,12,17-pentamethyl-13-vinyl-7H,8H-porphyrin-7-yl)-N-methylpropanamido)propyl)thio)tetrahydro-2H-pyran-3,4,5-triyl triacetate], for which the “Singlet Oxygen Production (slope) 1O2” value in data set [1] was 1434.0. Moreover, the IC90 in data set [2] (Homo sapiens, SK-OV-3, light or radiation study, read-out: Cellular Toxicity: Phototoxicity IC90, SKOV3, 24 h uptake, 652 nm laser 50 mW/cm2 5 mins (15 J/cm2), viability 24 h later) was 500 nM. Also, in data set [3] (human, 24 h), the “Cellular Toxicity: Dark toxicity IC10” value worked out at 29000 nM.
For `C=Cc1c(C)c2cc3nc(c(C)c4cc(C)c(cc5nc(cc1[nH]2)C(C)=C5CC)[nH]4)[C@@H](CCC(=O)N(C)CCCO)[C@@H]3C` [Compound 5, 3-((7S,8S)-18-ethyl-2,5,8,12,17-pentamethyl-13-vinyl-7H,8H-porphyrin-7-yl)-N-(3-hydroxypropyl)-N-methylpropanamide], in data set [1], the “Rate of ROS production relative to chlorin e4 disodium and Talaporfin sodium” value is recorded as “more than double”; the “Singlet Oxygen Production (slope) 1O2” value is recorded as 2385.0. In addition, in data set [2] (setting [4]), the IC90 was 50 nM. Also, the IC90 in data set [2] (setting [6]) was less than 100 nM. Besides, the “Cellular Toxicity: Dark toxicity IC10” value in data set [3] (human, 24 h) came out at 20820 nM.
As for `C=Cc1c(C)c2cc3nc(c(C)c4cc(C)c(cc5nc(cc1[nH]2)C(C)=C5CC)[nH]4)[C@@H](CCC(=O)O)[C@@H]3C` [Compound 1b, phyllochlorin lithium salt], the “Singlet Oxygen Production (slope) 1O2” value in data set [1] (lithium salt) is given as 841.7. Moreover, in data set [2] (SKOV3, 24 h uptake, 652 nm laser 50 mW/cm2 5 mins (15 J/cm2), viability 24 h later, lithium salt, read-out: Cellular Toxicity: Phototoxicity IC90), the IC90 was 1400 nM. Also, in data set [3] (human, 24 h), the “Cellular Toxicity: Dark toxicity IC10” value was determined as 22130 nM.
As to `C=Cc1c(C)c2cc3nc(c(C)c4cc(C)c(cc5nc(cc1[nH]2)C(C)=C5CC)[nH]4)[C@@H](CCC(=O)N(C)CCCCCO)[C@@H]3C` [Compound 7, 3-((7S,8S)-18-ethyl-2,5,8,12,17-pentamethyl-13-vinyl-7H,8H-porphyrin-7-yl)-N-(5-hydroxypentyl)-N-methylpropanamide], the “Singlet Oxygen Production (slope) 1O2” value in data set [1] came out at 1494.0. In addition, the IC90 in data set [2] (setting [4]) is 50 nM; in data set [2] (setting [6]) it was less than 100 nM. Besides, the “Cellular Toxicity: Dark toxicity IC10” value in data set [3] (human, 24 h) came out at 14270 nM.
In the case of `C=Cc1c(C)c2cc3nc(c(C)c4cc(C)c(cc5nc(cc1[nH]2)C(C)=C5CC)[nH]4)[C@@H](CCC(=O)O)[C@@H]3C` [Compound 1e, phyllochlorin meglumine salt], in data set [1], the “Singlet Oxygen Production (slope) 1O2” value amounted to 938.8. Also, the IC90 in data set [2] (setting [5]) worked out at 1790 nM. In data set [3] (human, 24 h), the “Cellular Toxicity: Dark toxicity IC10” value turned out to be 20730 nM.

(Values after patent publication US20230365577A1, “Photodynamic Therapy and Diagnosis” (RMW CHO Group Limited, priority 2020, published 2023).)
